# Entries after “also recorded” stand apart in the source; their conditions may differ.
# Key:
# Atrogin-1 and MuRF1 = assay: Immunoblot for muscle wasting markers in gastrocnemius of treated mice; format: in vivo; conditions: old (22-month) mice; NMN one week; skeletal muscle
# Excerpt: (§1) C57BL/6J mice of 6, 22, or 30 months of age were obtained from the National Institutes of Aging mouse aging colony. Additionally 22 months old caloric restricted mice were also obtained from the National Institutes of Aging mouse aging colony. EGLN1 KO, SIRT1 KO and SIRT1 OE mice were generated as previously described (Minamishima et al., 2008; Price et al., 2012). Mice were acclimated for at least one-week prior to sacrifice. 3, 6, 22 and 24-month-old mice were given interperitoneal (IP) injections of 500 mg NMN/kg body weight per day or the equivalent volume of PBS for 7 consecutive days at 5:00 pm and 7:00 am on day 8 and sacrificed 4 hr after last injection.
# (§2) Protein extracts from tissue or C2C12 cells were obtained by lysis in ice-cold lysis buffer (150 mM NaCl, 10 mM Tris HCl (pH 7.4), 1 mM EDTA, 1 mM EGTA, 1% Triton X-100, 0.5% NP-40) supplemented with a cocktail of protease and phosphatase inhibitors (Roche). Protein content was determined by the Bradford protein assay (Biorad), and 50 μg proteins were run on SDS-PAGE under reducing conditions. The separated proteins were then electrophoretically transferred to a polyvinylidene difluoride membrane (Perkin-Elmer). […] The immunostaining was detected using horseradish peroxidase-conjugated anti-rabbit or anti-mouse immunoglobulin for 1 h at room temperature.
# [1] = system: inflammatory markers (TNF-α, IL-6 and IL-18); assay: qPCR of inflammatory markers in gastrocnemius of treated mice; format: in vivo; conditions: old (22-month) mice; NMN one week; skeletal muscle
# Excerpt: as §1
# RNA from skeletal muscle tissue and C2C12 cells were extracted with RNeasy mini kit (Qiagen) according to the instructions and quantified using the NanoDrop 1000 spectrophotometer (Thermo Scientific). cDNA was synthesized with the iSCRIP cDNA synthesis kit (BioRad) using 600 ng of RNA. Quantitative RT-PCR reactions were performed using 1 μM of primers and LightCycler® 480 SYBR Green Master (Roche) on an LightCycler® 480 detection system (Roche). Calculations were performed by a comparative method (2-ΔCT) using 18S as an internal control. […]
# primary myoblasts = assay: qPCR of mitochondrial-encoded genes in primary myoblasts infected with NMNAT1 or nontargeting shRNA; format: cell-based, mouse; conditions: primary myoblasts with knockdown of NMNAT1
# VHL = assay: Immunoblot for VHL in gastrocnemius of treated mice; format: in vivo; conditions: 6- and 22-month-old mice, NMN one week
# Excerpt: as §1
# C57BL/6J mice of 3, 6, 22, or 24 months of age were obtained from the National Institutes of Aging mouse aging colony. […]
# as §2, with “tissue” for “tissue or C2C12 cells”, “conditions.” for “conditions. The separated proteins were then electrophoretically transferred to a polyvinylidene difluoride membrane (Perkin-Elmer).”
# lactate = assay: Lactate levels in skeletal muscle of treated mice; format: in vivo; conditions: 6- and 22-month-old mice; NMN one week
# Excerpt: as §1
# C57BL/6J mice of 3, 6, 22, or 24 months of age were obtained from the National Institutes of Aging mouse aging colony. Additionally 22 months old caloric restricted mice were also obtained from the National Institutes of Aging mouse aging colony. Mice were acclimated for at least one-week prior to sacrifice. 3, 6, 22 and 24-month-old mice were given interperitoneal (IP) injections of 500 mg NMN/kg body weight per day or the equivalent volume of PBS for 7 consecutive days at 5:00 pm and 7:00 am on day 8 and sacrificed 4 hr after last injection. […]
# Lactate from skeletal muscle was quantified with a commercially available kit (BioVision) according to the manufacturer's instructions.
# NAD+ = NAD+ levels in skeletal muscle of mice treated with NMN; format: in vivo, C57BL/6J mice; conditions: young and old
# Protocol: (§3) C57BL/6J mice of 3, 6, 22, 24, or 30 months of age were obtained from the National Institutes of Aging mouse aging colony. Mice were acclimated for at least one-week prior to sacrifice. 3, and 24-month-old mice were given interperitoneal (IP) injections of 500 mg NMN/kg body weight per day or the equivalent volume of PBS for 7 consecutive days at 5:00 pm and 7:00 am on day 8 and sacrificed 4 hr after last injection. All animal studies followed the guidelines of and were approved by the Harvard Institutional Animal Care and Use Committee
# NAD^+ from C2C12 cells and skeletal muscle was quantified with a commercially available kit (BioVision) according to the manufacturer's instructions and as described before (Gomes et al., Biochim. Biophys. Acta. 1822:185-195 (2012)).
# (§4) C57BL/6J mice of 6, 22, or 30 months of age were obtained from the National Institutes of Aging mouse aging colony. Additionally 22 months old caloric restricted mice were also obtained from the National Institutes of Aging mouse aging colony. EGLN1 KO, SIRT1 KO and SIRT1 OE mice were generated as previously described (Minamishima et al., 2008; Price et al., 2012). Mice were acclimated for at least one-week prior to sacrifice. […]
# NAD^+ from skeletal muscle was quantified with a commercially available kit (BioVision) according to the manufacturer's instructions and as described before (Gomes et al., 2012). […]
# HIF-1α [2] = assay: Immunoblot for HIF-1α in gastrocnemius of treated mice; format: in vivo
# Protocol: as §3, §4
# as §2, with “conditions.” for “conditions. The separated proteins were then electrophoretically transferred to a polyvinylidene difluoride membrane (Perkin-Elmer).”
# as §2, with “tissue” for “tissue or C2C12 cells”, “conditions.” for “conditions. The separated proteins were then electrophoretically transferred to a polyvinylidene difluoride membrane (Perkin-Elmer).”
# HIF-1α [3] = assay: Immunoblot of HIF-1α in PGC-1α/β KO myotubes; format: cell-based, mouse; conditions: PGC-1α/β knockout myotubes treated with DMOG
# Protocol: Primary myoblasts cells were isolated from WT, SIRT1 KO (Price et al., 2012) and PGC-1α/β KO (Zechner et al., 2010) mice as previously described (Price et al., 2012). WT and PGC-1α/β KO primary myoblasts were plated and allowed to differentiate into myotubes by replacing the media with low glucose DMEM supplemented with 2% horse serum (Sigma-Aldrich) for 4 days. After the differentiation the cells were infected with empty vector or flag-SIRT1 adenovirus as described before (Gerhart-Hines et al., 2007). Media was replaced with fresh DMEM supplemented with 2% horse serum (Sigma-Aldrich) for an additional 48 hr and, after that the cells were harvested for the different assays as described. […]
# as §2, with “conditions.” for “conditions. The separated proteins were then electrophoretically transferred to a polyvinylidene difluoride membrane (Perkin-Elmer).”
SMILES,muscle wasting markers Atrogin-1 and MuRF1 (Atrogin-1 and MuRF1),expression of inflammation markers [1],ability of NMN to induce expression of mitochondrial-encoded genes (primary myoblasts),VHL protein (VHL),lactate levels in the skeletal muscle (lactate),"levels of cellular NAD+ (NAD+; 3- and 24-month-old C57BL/6J mice, NMN 500 mg/kg IP for one week, skeletal muscle)","levels of cellular NAD+ (NAD+; 6- and 22-month-old C57BL/6J mice, NMN for one week) [fold]","HIF-1α protein in muscle (HIF-1α [2]; 3- and 24-month-old mice, NMN 500 mg/kg IP one week)","HIF-1α protein accumulation (HIF-1α [2]; 6- and 22-month-old mice, NMN one week)",HIF-1α protein (HIF-1α [3]),"HIF-1α protein (HIF-1α [2]; SIRT1-tg mice, DMOG 300 mg/kg IP per day, 5 days)"
"NC(=O)c1ccc[n+]([C@@H]2O[C@H](COP(=O)([O-])O)[C@@H](O)[C@H]2O)c1 [NMN, nicotinamide mononucleotide]",completely reversed these markers,completely reversed these markers,completely abolishes the ability of NMN to induce the expression of mitochondrial-encoded genes,reversed the age-induced decline in VHL,suppressed the increase in lactate levels,approximately 2 fold,2,reversed the age-induced increase in HIF-1α in muscle,reversed; also recorded: reduced the level of HIF-1α in muscle,–,–
"COC(=O)CNC(=O)C(=O)OC [DMOG, dimethyloxaloylglycine]",–,–,–,–,–,–,–,–,–,stabilizes HIF-1α protein,increase HIF-1α
